From the supplement of paper PMC4862054

Assays:
Assay in all cases: normalised viability (% of control), CellTiter-Blue; higher = more viable cells (about 100 = DMSO control)
Settings in all cases: incubation time: 72 h
[1] = tested on: CAL-51
Protocol: (§1)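 DSRT, CellTiter-Blue viability, 72 h incubation. Signal is normalised to DMSO and benzethonium chloride controls. Value is the normalised response at dose 9.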

[2] = tested on: DU-4475
Protocol: as §1

[3] = tested on: CAL-148
Protocol: as §1

[4] = tested on: CAL-85-1
Protocol: as §1

[5] = tested on: MDA-MB-453
Protocol: as §1

[6] = tested on: HDQ-P1
Protocol: as §1

[7] = tested on: CAL-51; remark: listed apart in the source
Protocol: (§2)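 DSRT, CellTiter-Blue viability, 72 h incubation. Signal is normalised to DMSO and benzethonium chloride controls. Value is the normalised response at dose 6.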

[8] = tested on: DU-4475; remark: listed apart in the source
Protocol: as §2

[9] = tested on: CAL-148; remark: listed apart in the source
Protocol: as §2

[10] = tested on: CAL-85-1; remark: listed apart in the source
Protocol: as §2

[11] = tested on: MDA-MB-453; remark: listed apart in the source
Protocol: as §2

[12] = tested on: HDQ-P1; remark: listed apart in the source
Protocol: as §2

[13] = tested on: CAL-51; remark: listed apart in the source
How it was run: (§3)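 Breast cancer cell lines in 20 µl suspension were seeded onto 384-well plates pre-loaded with compound dissolved in 5 µl medium, then incubated 72 h. CellTiter-Blue reagent (2.5 µl) was added for 2 h at 37 °C and fluorescence read at 560/590 nm. Each plate was normalised to vehicle (100) and a positive kill control (0), with Z'-factor quality control. The value is normalised viability at one listed concentration of the series.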

[14] = tested on: CAL-120
How it was run: as §3

[15] = tested on: MDA-MB-436
How it was run: as §3

[16] = tested on: BT-474
How it was run: as §3

[17] = tested on: MFM-223
How it was run: as §3

[18] = tested on: DU-4475; remark: listed apart in the source
How it was run: as §3

[19] = tested on: BT-549
How it was run: as §3

[20] = tested on: MDA-MB-231
How it was run: as §3

[21] = tested on: HCC1599
How it was run: as §3

[22] = tested on: HCC1937
How it was run: as §3

[23] = tested on: MDA-MB-453; remark: listed apart in the source
How it was run: as §3

[24] = tested on: Hs578T
How it was run: as §3

[25] = tested on: MDA-MB-468
How it was run: as §3

[26] = tested on: HDQ-P1; remark: listed apart in the source
How it was run: as §3

[27] = tested on: CAL-51; remark: listed apart in the source
Protocol: (§4)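 DSRT, CellTiter-Blue viability, 72 h incubation. Signal is normalised to DMSO and benzethonium chloride controls. Value is the normalised response at dose 8.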

[28] = tested on: DU-4475; remark: listed apart in the source
Protocol: as §4

[29] = tested on: CAL-148; remark: listed apart in the source
Protocol: as §4

[30] = tested on: CAL-85-1; remark: listed apart in the source
Protocol: as §4

[31] = tested on: MDA-MB-453; remark: listed apart in the source
Protocol: as §4

[32] = tested on: HDQ-P1; remark: listed apart in the source
Protocol: as §4

## CN(C)C[C@@H]1CCn2cc(c3ccccc32)C2=C(C(=O)NC2=O)c2cn(c3ccccc23)CCO1 [Ruboxistaurin]
[1]; 10000 nM
  normalised viability: 27.4%
[2]; 10000 nM
  normalised viability: 1.01%
[3]; 10000 nM
  normalised viability: 24.3%
[4]; 10000 nM
  normalised viability: 84.3%
[5]; 10000 nM
  normalised viability: 0.78%
[6]; 10000 nM
  normalised viability: 22.5%
[7]; 300 nM
  normalised viability: 91%
[8]; 300 nM
  normalised viability: 82.2%
[9]; 300 nM
  normalised viability: 99%
[10]; 300 nM
  normalised viability: 106%
[11]; 300 nM
  normalised viability: 104%
[12]; 300 nM
  normalised viability: 48.4%
[13]; 3 nM
  normalised viability: 98.6%
[14]; 10 nM
  normalised viability: 108%
[15]; 10 nM
  normalised viability: 94.1%
[16]; 10 nM
  normalised viability: 96.7%
[17]; 10 nM
  normalised viability: 97.6%
[18]; 3 nM
  normalised viability: 113%
[19]; 10 nM
  normalised viability: 85.2%
[20]; 10 nM
  normalised viability: 95%
[21]; 10 nM
  normalised viability: 109%
[22]; 10 nM
  normalised viability: 44.5%
[23]; 3 nM
  normalised viability: 94.7%
[24]; 10 nM
  normalised viability: 96.4%
[25]; 10 nM
  normalised viability: 94.5%
[26]; 3 nM
  normalised viability: 79.3%
[27]; 3000 nM
  normalised viability: 70.4%
[28]; 3000 nM
  normalised viability: 61.1%
[29]; 3000 nM
  normalised viability: 79.4%
[30]; 3000 nM
  normalised viability: 106%
[31]; 3000 nM
  normalised viability: 74.2%
[32]; 3000 nM
  normalised viability: 74.2%

## O=C1NC(=O)[C@@H](c2cn3c4c(cccc24)CCC3)[C@@H]1c1c[nH]c2ccccc12 [Tivantinib]
[1]; 1000 nM
  normalised viability: 21.1%
[2]; 1000 nM
  normalised viability: 36.9%
[3]; 1000 nM
  normalised viability: 30.5%
[4]; 1000 nM
  normalised viability: 33.9%
[5]; 1000 nM
  normalised viability: 31%
[6]; 1000 nM
  normalised viability: 53%
[7]; 30 nM
  normalised viability: 104%
[8]; 30 nM
  normalised viability: 87.3%
[9]; 30 nM
  normalised viability: 104%
[10]; 30 nM
  normalised viability: 95.8%
[11]; 30 nM
  normalised viability: 107%
[12]; 30 nM
  normalised viability: 55.3%
[13]; 0.3 nM
  normalised viability: 104%
[14]; 1 nM
  normalised viability: 93.4%
[15]; 1 nM
  normalised viability: 97.7%
[16]; 1 nM
  normalised viability: 127%
[17]; 1 nM
  normalised viability: 83.8%
[18]; 0.3 nM
  normalised viability: 107%
[19]; 1 nM
  normalised viability: 107%
[20]; 1 nM
  normalised viability: 106%
[21]; 1 nM
  normalised viability: 115%
[22]; 1 nM
  normalised viability: 67.8%
[23]; 0.3 nM
  normalised viability: 122%
[24]; 1 nM
  normalised viability: 133%
[25]; 1 nM
  normalised viability: 112%
[26]; 0.3 nM
  normalised viability: 104%
[27]; 300 nM
  normalised viability: 98.3%
[28]; 300 nM
  normalised viability: 102%
[29]; 300 nM
  normalised viability: 97.9%
[30]; 300 nM
  normalised viability: 68.8%
[31]; 300 nM
  normalised viability: 49.5%
[32]; 300 nM
  normalised viability: 90.7%

## C/C(=C\c1csc(C)n1)[C@@H]1C[C@@H]2O[C@]2(C)CCC[C@H](C)[C@H](O)[C@@H](C)C(=O)C(C)(C)[C@@H](O)CC(=O)O1 [Patupilone]
[1]; 1000 nM
  normalised viability: 13.6%
[2]; 1000 nM
  normalised viability: 2.77%
[3]; 1000 nM
  normalised viability: 19.9%
[4]; 1000 nM
  normalised viability: 30.3%
[5]; 1000 nM
  normalised viability: 20.9%
[6]; 1000 nM
  normalised viability: 55.1%
[7]; 30 nM
  normalised viability: 28.8%
[8]; 30 nM
  normalised viability: 18.5%
[9]; 30 nM
  normalised viability: 19.6%
[10]; 30 nM
  normalised viability: 27.2%
[11]; 30 nM
  normalised viability: 24.8%
[12]; 30 nM
  normalised viability: 48.4%
[13]; 0.3 nM
  normalised viability: 106%
[14]; 1 nM
  normalised viability: 109%
[15]; 1 nM
  normalised viability: 86.8%
[16]; 1 nM
  normalised viability: 103%
[17]; 1 nM
  normalised viability: 105%
[18]; 0.3 nM
  normalised viability: 90.2%
[19]; 1 nM
  normalised viability: 106%
[20]; 1 nM
  normalised viability: 59.6%
[21]; 1 nM
  normalised viability: 108%
[22]; 1 nM
  normalised viability: 79.4%
[23]; 0.3 nM
  normalised viability: 114%
[24]; 1 nM
  normalised viability: 102%
[25]; 1 nM
  normalised viability: 96%
[26]; 0.3 nM
  normalised viability: 107%
[27]; 300 nM
  normalised viability: 12.7%
[28]; 300 nM
  normalised viability: 7.32%
[29]; 300 nM
  normalised viability: 17.6%
[30]; 300 nM
  normalised viability: 26.8%
[31]; 300 nM
  normalised viability: 20.4%
[32]; 300 nM
  normalised viability: 41%
